The source of these data is patent US20230115274A1, “COMPOUNDS AND COMPOSITIONS FOR TREATING CONDITIONS ASSOCIATED WITH STING ACTIVITY” (IFM Due, Inc., priority 2019, published 2023).

Structures are written as SMILES.

The EC50 is the concentration needed to bring the measured effect to its halfway point. High values mean a less potent agent, low ones a more potent agent.

The target in the assay is T1, hSTING (Homo sapiens, UniProt Q86WV6, G230A/H232R/R293Q/R71H).
T1 construct: host or cells: THP1-Dual KO-IFNAR2 cells
T1 sequence (Q86WV6 whole entry R71H/G230A/H232R/R293Q): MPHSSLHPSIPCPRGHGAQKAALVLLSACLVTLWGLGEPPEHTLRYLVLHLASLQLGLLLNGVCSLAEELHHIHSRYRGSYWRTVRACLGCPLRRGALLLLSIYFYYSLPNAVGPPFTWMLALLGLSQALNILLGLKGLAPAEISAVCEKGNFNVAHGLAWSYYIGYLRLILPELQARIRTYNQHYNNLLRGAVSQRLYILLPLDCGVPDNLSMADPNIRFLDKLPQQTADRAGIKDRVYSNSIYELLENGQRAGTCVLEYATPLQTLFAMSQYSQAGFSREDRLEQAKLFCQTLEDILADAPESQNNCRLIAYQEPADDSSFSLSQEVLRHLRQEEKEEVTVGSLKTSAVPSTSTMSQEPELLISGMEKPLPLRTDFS
Description: STING reporter assay (luciferase) in THP1-Dual KO-IFNAR2 cells stimulated with 2′3′cGAMP. The format is cell-based. The conditions noted are these: 2′3′cGAMP 15 μM, 24 h. The protocol: STING pathway activation by the compounds described herein was measured using THP1-Dual™ cells (KO-IFNAR2).
THP1-Dual™ KO-IFNAR2 Cells (obtained from invivogen) were maintained in RPMI, 10% FCS, 5 ml P/S, 2 mM L-glut, 10 mM Hepes, and 1 mM sodium pyruvate. Compounds were spotted in empty 384 well tissue culture plates (Greiner 781182) by Echo for a final concentration of 0.0017-100 μM. Cells were plated into the TC plates at […], 2×10E6 cells/mL. For activation with STING ligand, 2′3′cGAMP (MW 718.38, obtained from Invivogen), was prepared in Optimem media.
The following solutions were prepared for each 1×384 plate: • Solution A: 2 mL Optimem with one of the following stimuli: • […] • Solution B: 2 mL Optimem with 60 μL Lipofectamine 2000->Incubate 5 min at RT
2 mL of solution A and 2 ml Solution B was mixed and incubated for 20 min at room temperature (RT). 20 uL of transfection solution (A+B) was added on top of the plated cells, with a final 2′3′cGAMP concentration of 15 μM. The plates were then centrifuged immediately at 340 g for 1 minute, after which they were incubated at 37° C., 5% CO2, >98% humidity for 24 h. Luciferase reporter activity was then measured. EC50 values were calculated by using standard methods known in the art.
Luciferase reporter assay: 10 μL of supernatant from the assay was transferred to white 384-plate with flat bottom and squared wells. One pouch of QUANTI-Luc™ Plus was dissolved in 25 mL of water. 100 μL of QLC Stabilizer per 25 mL of QUANTI-Luc™ Plus solution was added. 50 μL of QUANTI-Luc™ Plus/QLC solution per well was then added. Luminescence was measured on a Platereader (e.g., Spectramax I3X (Molecular Devices GF3637001)).
Luciferase reporter activity was then measured. EC50 values were calculated by using standard methods known in the art.

As to `O=C(Nc1cnc(N2CCC3(CC2)CCC(F)(F)CO3)c(Cl)c1)Nc1c[nH]c2cccnc12` [Compound 207, 1-(5-chloro-6-(3,3-difluoro-1-oxa-9-azaspiro[5.5]undecan-9-yl)pyridin-3-yl)-3-(1H-pyrrolo[3,2-b]pyridin-3-yl)urea], the concentration giving a half-maximal response (EC50) (class symbols) is 5000 to 100000 nM.

Consider `Cn1cc(-n2cc(NC(=O)Nc3ccc(C4CCC(F)(F)CC4)nc3)c3cc(F)cnc32)cn1` [Compound 125, 1-(6-(4,4-difluorocyclohexyl)pyridin-3-yl)-3-(5-fluoro-1-(1-methyl-1H-pyrazol-4-yl)-1H-pyrrolo[2,3-b]pyridin-3-yl)urea], for which the EC50 (numeric bounds) was greater than 30000 nM.

For the setting “class symbols”, `N#Cc1cc(NC(=O)Nc2c[nH]c3ncc(Cl)cc23)cnc1C1CCC(F)(F)CC1` [Compound 151, 1-(5-chloro-1H-pyrrolo[2,3-b]pyridin-3-yl)-3-(5-cyano-6-(4,4-difluorocyclohexyl)pyridin-3-yl)urea] had an EC50 of 200 to 1000 nM.

For `COc1ccc2[nH]cc(NC(=O)Nc3cnc(N4CCC(F)(F)CC4)c(C)c3)c2n1` [Compound 173, 1-(6-(4,4-difluoropiperidin-1-yl)-5-methylpyridin-3-yl)-3-(5-methoxy-1H-pyrrolo[3,2-b]pyridin-3-yl)urea], the EC50 (class symbols) fell in the range of 200 to 1000 nM.

On to `O=C(Nc1cc(Cl)c(N2CCC(F)(F)CC2)cn1)Nc1c[nH]c2cccnc12` [Compound 235, 1-(4-chloro-5-(4,4-difluoropiperidin-1-yl)pyridin-2-yl)-3-(1H-pyrrolo[3,2-b]pyridin-3-yl)urea], for which the EC50 (class symbols) is 1000 to 5000 nM.

Take `O=C(Nc1cnc(N2CCC(F)(F)CC2)c(CCO)c1)Nc1c[nH]c2ncc(F)cc12` [Compound 147, 1-(6-(4,4-difluoropiperidin-1-yl)-5-(2-hydroxyethyl)pyridin-3-yl)-3-(5-fluoro-1H-pyrrolo[2,3-b]pyridin-3-yl)urea]: the EC50 (class symbols) was 5000 to 100000 nM.

Take `COc1cc(NC(=O)Nc2c[nH]c3ncc(F)cc23)cnc1C1CCC(F)(F)CC1` [Compound 164, 1-(6-(4,4-difluorocyclohexyl)-5-methoxypyridin-3-yl)-3-(5-fluoro-1H-pyrrolo[2,3-b]pyridin-3-yl)urea]: under “class symbols”, the EC50 is 200 to 1000 nM.

With `Cc1cc(NC(=O)Nc2c[nH]c3ncc(F)cc23)cnc1N1CCOCC1` [Compound 167, 1-(5-fluoro-1H-pyrrolo[2,3-b]pyridin-3-yl)-3-(5-methyl-6-morpholinopyridin-3-yl)urea], the concentration for a half-maximal effect (EC50) (numeric bounds) is greater than 30000 nM.

Regarding `Cc1cc(NC(=O)Nc2c[nH]c3ncc(F)cc23)cnc1N1CC2(COC2)C1` [Compound 159, 1-(5-fluoro-1H-pyrrolo[2,3-b]pyridin-3-yl)-3-(5-methyl-6-(2-oxa-6-azaspiro[3.3]heptan-6-yl)pyridin-3-yl)urea], the EC50 (numeric bounds) was greater than 30000 nM.

`O=C(Nc1cnc(N2CCC(F)(F)CC2)cn1)Nc1c[nH]c2ncc(F)cc12` [Compound 191, 1-(5-(4,4-difluoropiperidin-1-yl)pyrazin-2-yl)-3-(5-fluoro-1H-pyrrolo[2,3-b]pyridin-3-yl)urea]: the EC50 (class symbols) lay within 200 to 1000 nM.

`Cc1cc(N2CCC(F)(F)CC2)ncc1NC(=O)Nc1c[nH]c2nccc(C)c12` [Compound 179, 1-(6-(4,4-difluoropiperidin-1-yl)-4-methylpyridin-3-yl)-3-(4-methyl-1H-pyrrolo[2,3-b]pyridin-3-yl)urea] displayed an EC50 (numeric bounds) greater than 30000 nM.

In the case of `COc1cc(NC(=O)Nc2c[nH]c3ncc(F)cc23)ncc1C1CCC(F)(F)CC1` [Compound 160, 1-(5-(4,4-difluorocyclohexyl)-4-methoxypyridin-2-yl)-3-(5-fluoro-1H-pyrrolo[2,3-b]pyridin-3-yl)urea], the EC50 (class symbols) was 200 to 1000 nM.

Molecule `O=C(Nc1cnn(C2CCC(F)(F)CC2)c1)Nc1c[nH]c2cccnc12` [Compound 205, 1-(1-(4,4-difluorocyclohexyl)-1H-pyrazol-4-yl)-3-(1H-pyrrolo[3,2-b]pyridin-3-yl)urea] registered an EC50 (numeric bounds) greater than 30000 nM.

`N#Cc1cc(NC(=O)Nc2c[nH]c3ncc(F)cc23)cnc1N1CCC(F)(F)CC1` [Compound 157, 1-(5-cyano-6-(4,4-difluoropiperidin-1-yl)pyridin-3-yl)-3-(5-fluoro-1H-pyrrolo[2,3-b]pyridin-3-yl)urea] registered an EC50 (class symbols) of 200 to 1000 nM.

`O=C(Nc1ccc(C2CC(F)(F)C2)c(Cl)c1)Nc1c[nH]c2cccnc12` [Compound 219, 1-(3-chloro-4-(3,3-difluorocyclobutyl)phenyl)-3-(1H-pyrrolo[3,2-b]pyridin-3-yl)urea] registered an EC50 (class symbols) of 200 to 1000 nM.

Consider `O=C(Nc1cnc(C2CC(F)(F)C2)c(Cl)c1)Nc1c[nH]c2ncc(F)cc12` [Compound 166, 1-(5-chloro-6-(3,3-difluorocyclobutyl)pyridin-3-yl)-3-(5-fluoro-1H-pyrrolo[2,3-b]pyridin-3-yl)urea], for which the EC50 (class symbols) was 200 to 1000 nM.

Where the note is “class symbols”, `O=C(Nc1cnc(N2CCC(F)(F)CC2)c(Cl)c1)Nc1c[nH]c2cc(Br)cnc12` [Compound 240, 1-(6-bromo-1H-pyrrolo[3,2-b]pyridin-3-yl)-3-(5-chloro-6-(4,4-difluoropiperidin-1-yl)pyridin-3-yl)urea] gave an EC50 of 5000 to 100000 nM.

`O=C(Nc1ccc(C2CCC(F)(F)CC2)nc1)Nc1cn(C(=O)c2ccccc2)c2ncc(F)cc12` [Compound 121, 1-(1-benzoyl-5-fluoro-1H-pyrrolo[2,3-b]pyridin-3-yl)-3-(6-(4,4-difluorocyclohexyl)pyridin-3-yl)urea]: where the note is “class symbols”, the EC50 is 200 to 1000 nM.

`O=C(Nc1cnc(N2CCC(F)(F)CC2)c(Cl)c1)Nc1c[nH]c2ncc(F)cc12` [Compound 110, 1-(5-chloro-6-(4,4-difluoropiperidin-1-yl)pyridin-3-yl)-3-(5-fluoro-1H-pyrrolo[2,3-b]pyridin-3-yl)urea] showed an EC50 (class symbols) of 40 to 200 nM.

Turning to `O=C(Nc1ccc(NC2CCC2)nc1)Nc1c[nH]c2ncc(F)cc12` [Compound 112, 1-(6-(cyclobutylamino)pyridin-3-yl)-3-(5-fluoro-1H-pyrrolo[2,3-b]pyridin-3-yl)urea], under “class symbols”, the EC50 was 1000 to 5000 nM.

Where the note is “class symbols”, `COCCOc1ccc2[nH]cc(NC(=O)Nc3cnc(N4CCC(F)(F)CC4)c(Cl)c3)c2n1` [Compound 218, 1-(5-chloro-6-(4,4-difluoropiperidin-1-yl)pyridin-3-yl)-3-(5-(2-methoxyethoxy)-1H-pyrrolo[3,2-b]pyridin-3-yl)urea] showed an EC50 of 200 to 1000 nM.

For `COc1ccc2[nH]cc(NC(=O)Nc3cnc(N4CCC5(CC4)CC(F)(F)C5)c(Cl)c3)c2n1` [Compound 203, 1-(5-chloro-6-(2,2-difluoro-7-azaspiro[3.5]nonan-7-yl)pyridin-3-yl)-3-(5-methoxy-1H-pyrrolo[3,2-b]pyridin-3-yl)urea], the EC50 (class symbols) is 200 to 1000 nM.

On to `CS(=O)(=O)n1cc(NC(=O)Nc2ccc(C3CCC(F)(F)CC3)nc2)c2cc(F)cnc21` [Compound 197, 1-(6-(4,4-difluorocyclohexyl)pyridin-3-yl)-3-(5-fluoro-1-(methylsulfonyl)-1H-pyrrolo[2,3-b]pyridin-3-yl)urea], for which the EC50 (numeric bounds) is greater than 30000 nM.

For the setting “class symbols”, `N#Cc1cc(NC(=O)Nc2c[nH]c3c(F)cncc23)ccc1C1CCC(F)(F)CC1` [Compound 149, 1-(3-cyano-4-(4,4-difluorocyclohexyl)phenyl)-3-(7-fluoro-1H-pyrrolo[3,2-c]pyridin-3-yl)urea] registered an EC50 of 200 to 1000 nM.

With `Cc1cc(NC(=O)Nc2c[nH]c3cccnc23)cnc1N1CCC(F)(F)CC1` [Compound 146, 1-(6-(4,4-difluoropiperidin-1-yl)-5-methylpyridin-3-yl)-3-(1H-pyrrolo[3,2-b]pyridin-3-yl)urea], the EC50 (class symbols) fell in the range of 1000 to 5000 nM.

In turn, `Cc1cnc2[nH]cc(NC(=O)Nc3ccc(C4CCC(F)(F)CC4)nc3)c2c1` [Compound 106, 1-(6-(4,4-difluorocyclohexyl)pyridin-3-yl)-3-(5-methyl-1H-pyrrolo[2,3-b]pyridin-3-yl)urea] yielded a half-maximal effective concentration (EC50) (class symbols) of 1000 to 5000 nM.

Molecule `CN(C(=O)OC(C)(C)C)C1CC(n2cc(NC(=O)Nc3ccc(C4CCC(F)(F)CC4)nc3)c3cc(F)cnc32)C1` (centres unmarked) [Compound 101, tert-butyl (3-(3-(3-(6-(4,4-difluorocyclohexyl)pyridin-3-yl)ureido)-5-fluoro-1H-pyrrolo[2,3-b]pyridin-1-yl)cyclobutyl)(methyl)carbamate] gave a concentration for a half-maximal effect (EC50) (class symbols) of 5000 to 100000 nM.

For the molecule `O=C(Nc1cnc(N2CCC(F)(F)CC2)c(F)c1)Nc1c[nH]c2cccnc12` [Compound 230, 1-(6-(4,4-difluoropiperidin-1-yl)-5-fluoropyridin-3-yl)-3-(1H-pyrrolo[3,2-b]pyridin-3-yl)urea], the concentration for a half-maximal effect (EC50) (class symbols) was in the range of 200 to 1000 nM.

Regarding `O=C(Nc1ccc(C2CCC(F)(F)CC2)nc1)Nc1c[nH]c2ccc(OCCC(F)(F)F)nc12` [Compound 204, 1-(6-(4,4-difluorocyclohexyl)pyridin-3-yl)-3-(5-(3,3,3-trifluoropropoxy)-1H-pyrrolo[3,2-b]pyridin-3-yl)urea], the 50% effective concentration (EC50) (class symbols) lay in the range of 1000 to 5000 nM.
